According to US20120045528A1, “USE OF N20 GAS FOR TREATING CHRONIC PAIN” (priority 2009, published 2012):
Entries after “also recorded” stand apart in the source; their conditions may differ. Where two headings read alike, the source gives them in different places.

What was measured:
[1] = test system: neuropathic rat (sciatic nerve constriction, CCI); experiment: Nociceptive threshold by vocalization test to a mechanical stimulus (Randall-Selitto) in rats with mononeuropathy from sciatic nerve constriction (CCI); format: in vivo, male Sprague-Dawley rats
Method: A mononeuropathy is induced in male Sprague-Dawley rats (8 per group) by sciatic nerve constriction. More specifically, on D0, the rats are anesthetized with halothane and the sciatic nerve (injured hind paw side) is prepared using chromic catgut, 4 filament. Neuropathic pain lasting more than 40 days is thus induced.
On D7, the rats are placed in a hermetic chamber where they will inhale, for 75 minutes, the test gas mixture or medical air in the control rats (Sham). Repeated exposures to the mixtures take place on D7, D8, and D9.
Other rats are subjected to comparative treatments with conventional painkilling products, namely ketamine (3×10 mg/kg, sc) and morphine (1 mg/kg, sc).
The nociceptive threshold is then measured via a vocalization test in response to a mechanical stimulus (Randall-Selitto).
The data obtained per measurement are expressed as mean (±standard deviation). The level of significance is set starting from P<0.05.

human beings = details: cited from earlier work
[2] = morphine 1 mg/kg sc, neuropathic rat
[3] = N2O concentration 5-25% (vol. %)
[4] = N2O concentration 26-45% (vol. %)
[5] = N2O concentration 45-65% (vol. %)

**Q.** With `CNC1(c2ccccc2Cl)CCCCC1=O` (stereo not shown) [ketamine] as the compound, how does the “duration of anti-hyperalgesic effect” value ([1]; ketamine 3x10 mg/kg sc, neuropathic rat) read?
**A.** ≤ 2 days

**Q.** What does the source list for `CN1CC[C@]23c4c5ccc(O)c4O[C@H]2[C@@H](O)C=C[C@H]3[C@H]1C5` [morphine]?
**A.** duration of analgesic effect ([1]; morphine 1 mg/kg sc, D14, neuropathic rat): 30 min; delayed effect (following days) / anti-hyperalgesic long-term effect [1, 2]: without a delayed effect; also recorded: without any anti-hyperalgesic long-term effect; duration of effect following administration (in words) [1, 2]: limited to a few minutes

**Q.** For `O=C1CC[C@@]2(O)[C@H]3Cc4ccc(O)c5c4[C@@]2(CCN3CC2CC2)[C@H]1O5` [naltrexone], which “effect on the anti-sensitization effect of 50% nitrous oxide on the following days” value ([1]; naltrexone given to block the analgesic effect of 50% nitrous oxide on D7) is on record?
**A.** does not modify

**Q.** Which “duration of sustained reduction of chronic pain of neuropathic type” value ([1]; rat, in vivo) does the source give for `[N-]=[N+]=O` [nitrous oxide] here?
**A.** > 1 month

**Q.** And the Amnesia (human beings; [3])?
**A.** none

**Q.** And the Analgesia (human beings; [3])?
**A.** none

**Q.** What about the Contact (human beings; [3]) of the same compound?
**A.** present

**Q.** What about the Psychic effects (human beings; [3]) of the same compound?
**A.** slight

**Q.** What about the Amnesia (human beings; [4]) of the same compound?
**A.** slight

**Q.** What about the Analgesia (human beings; [4]) of the same compound?
**A.** weak

**Q.** What about the Contact (human beings; [4]) of the same compound?
**A.** present

**Q.** And the Psychic effects (human beings; [4])?
**A.** drunkenness

**Q.** What about the Amnesia (human beings; [5]) of the same compound?
**A.** complete

**Q.** And the Analgesia (human beings; [5])?
**A.** moderate

**Q.** And the Contact (human beings; [5])?
**A.** present

**Q.** What about the Psychic effects (human beings; [5]) of the same compound?
**A.** drowsiness

**Q.** What about the “Psychic effects, Amnesia, Analgesia, Contact” value (human beings; N2O concentration 66-85% (vol. %)) of the same compound?
**A.** Patient unconscious
